Data published in US8546608B2, “Proteasome inhibitors and methods of using the same” (Cephalon, Inc., priority 2003, dated 2013).

What was measured:
[1] = target: T1, 20S Human Erythrocyte Proteasome (HEP) (Homo sapiens, UniProt P20618+P28074); assay: Chymotrypsin-like activity of 20S Human Erythrocyte Proteasome (HEP), IC50 determination; format: biochemical; settings: assay of Example C, inhibition of HEP
T1 construct: 20S Human Erythrocyte Proteasome (HEP), purchased from Immatics Biotechnologies Inc; purchased Immatics Biotechnologies Inc., Tübingen, Germany; host or cells: human erythrocytes (natural source)
Method in brief: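 20S proteasome at 0.2 μg/mL (about 0.6 nM catalytic sites) in 20 mM Tris with 0.04% SDS, preincubated 15 min at 37° C with inhibitor before Suc-LLVY-AMC (100 μM final). AMC fluorescence read in the linear range; triplicates, IC50 from concentration series.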

[2] = target: T2, proteasome in Molt-4 cells (human leukemia) (Homo sapiens, UniProt P20618+P28074); format: cell-based; settings: assay of Example E, inhibition of MOLT4; read-out: MOLT4 (EC50)
T2 sequence (P28074 60-263): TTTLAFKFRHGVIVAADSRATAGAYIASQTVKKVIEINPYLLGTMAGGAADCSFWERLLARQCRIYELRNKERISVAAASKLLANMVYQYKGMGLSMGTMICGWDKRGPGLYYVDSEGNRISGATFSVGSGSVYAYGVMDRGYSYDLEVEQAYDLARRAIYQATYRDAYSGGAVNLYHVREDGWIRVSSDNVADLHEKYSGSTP
T2 sequence (P20618 29-241): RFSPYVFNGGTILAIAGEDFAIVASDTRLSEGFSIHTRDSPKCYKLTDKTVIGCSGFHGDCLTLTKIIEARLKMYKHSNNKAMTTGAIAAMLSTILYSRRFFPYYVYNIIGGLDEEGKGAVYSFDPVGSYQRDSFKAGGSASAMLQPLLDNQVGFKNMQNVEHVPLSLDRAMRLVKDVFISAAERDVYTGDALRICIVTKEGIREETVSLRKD
Method in brief: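 Intact Molt-4 cells (6×10^6 cells/mL) in HEPES-buffered saline were preincubated with inhibitor 15 min at 37 °C, then given cell-permeable MeOSuc-FLF-AFC at 25 μM final.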

SMILES | IC50 [1] [nM] | EC50 [2] [nM] | melting point [°C]
CCCCc1ccc(C(=O)N[C@@H](CNC(=O)c2ccc(-c3nn[nH]n3)cc2)C(=O)N[C@@H](CC(C)C)B(O)O)cc1 [E.5.24, Boronic acid, [(1R)-1-[[(2S)-3-[4-(1H-tetrazolyl)-phenylcarbonylamino]-2-[(4-butylbenzoylamino)]-1-oxopropyl]amino]-3-methylbutyl]] | < 10 | 200 to 2000 | > 250
CCCCc1ccc(C(=O)N[C@@H](CNS(=O)(=O)c2cn(C)cn2)C(=O)N[C@@H](CC(C)C)B(O)O)cc1 [E.5.26, Boronic acid, [(1R)-1-[[(2S)-3-[1-methyl-1H-imidazole-4-sulfamoyl]-2-[(4-butylbenzoyl)amino]-1-oxopropyl]amino]-3-methylbutyl]] | < 10 | 200 to 2000 | 120 to 123
CC(C)C[C@H](NC(=O)[C@H](CNS(=O)(=O)c1ccc(F)cc1)NC(=O)c1ccc(Oc2ccccc2)cc1)B(O)O [E.5.30, Boronic acid, [(1R)-1-[[(2S)-3-[4-fluoro-benzenesulfonamide]-2-[(4-phenoxybenzoyl)amino]-1-oxopropyl]amino]-3-methylbutyl]] | < 10 | 200 to 2000 | 150 to 155
CCCCc1ccc(C(=O)N[C@@H](CNC(=O)NS(=O)(=O)c2ccc(C)cc2)C(=O)N[C@@H](CC(C)C)B(O)O)cc1 [E.5.36] | < 100 | 200 to 2000 | 175 to 177
CCCCc1ccc(C(=O)N[C@@H](CNS(=O)(=O)c2ccc(F)cc2)C(=O)N[C@@H](CC(C)C)B(O)O)cc1 [E.5.11, Boronic acid, [(1R)-1-[[(2S)-3-[4-fluoro-benzenesulfonamide]-2-[(4-butylbenzoyl)amino]-1-oxopropyl]amino]-3-methylbutyl]] | < 10 | < 200 | 130 to 132
CCCCc1ccc(C(=O)N[C@@H](CNC(=O)c2ccno2)C(=O)N[C@@H](CC(C)C)B(O)O)cc1 [E.5.25, Boronic acid, [(1R)-1-[[(2S)-3-(2-isoxazolylcarbonylamino)-2-[(4-butylbenzoylamino)]-1-oxopropyl]amino]-3-methylbutyl]] | < 10 | < 200 | 175 to 180
CC(C)C[C@H](NC(=O)[C@H](CNC(=O)Nc1ccccc1)NC(=O)c1ccc(Oc2ccccc2)cc1)B(O)O [E.5.32, Boronic acid, [(1R)-1-[[(2S)-3-(4-phenylureido]-2-[(4-phenoxybenzoyl)amino]-1-oxopropyl]amino]-3-methylbutyl]] | < 10 | < 200 | 155 to 158
CCCCc1ccc(C(=O)N[C@@H](CNC(=O)c2ccc(S(C)(=O)=O)cc2)C(=O)N[C@@H](CC(C)C)B(O)O)cc1 [E.5.20, Boronic acid, [(1R)-1-[[(2S)-3-[(4-methylsulfonyl)benzoylamino]-2-[(4-butylbenzoylamino)]-1-oxopropyl]amino]-3-methylbutyl]] | < 10 | < 200 | 168 to 170
CCCCc1ccc(C(=O)N[C@@H](CNC(=O)OCc2ccccc2)C(=O)N[C@@H](CC(C)C)B(O)O)cc1 [E.5.6] | < 10 | < 200 | 92 to 96
CCCCCCCCCC(=O)N[C@@H](CNC(=O)c1cccs1)C(=O)N[C@@H](CC(C)C)B1O[C@@H]2C[C@@H]3C[C@@H](C3(C)C)[C@]2(C)O1 [D.24.9, Decanamide, N-[(1S)-1-[[[(1R)-1-[(3aS,4S,6S,7aR)-hexahydro-3a,5,5-trimethyl-4,6-methano-1,3,2-benzodioxaborol-2-yl]-3-methylbutyl]amino]carbonyl]-2-[(thien-2-ylcarbonyl)amino]ethyl]-] | < 10 | < 200 | 110
